What all share (type): biochemical
In one assay the target is T1, KRAS G12V (Homo sapiens, UniProt P01116, G12V).
T1 construct: made in house; host or cells: E. coli, e.g. BL21 (DE3)
As to the kind of experiment: HTRF KRAS-SOS1 interaction assay, KRAS G12V. The note with it: binned ≤2 μM / >2 μM, read-out: Inhibition of KRAS G12V (IC50). The procedure, abridged:
(§1)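 Inhibition of the KRAS–SOS1 interaction was measured by HTRF (ex 337, em 620/665 nm) after ≥~10 min incubation. Donor: anti-GST-Eu on GST-KRAS; acceptor: anti-6His-XL665 on His-hSOS1, in HEPES pH 7.4 buffer with DTT, BSA and Igepal. Compounds in duplicate at 0.01–10 μM; IC50 from emission ratio.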
On the technique in general: TR-FRET usually uses a lanthanide donor and a delayed reading to cut background.

The next assay has as its target T2, KRAS G12D (Homo sapiens, UniProt P01116, G12D).
T2 construct: made in house; host or cells: E. coli, e.g. BL21 (DE3)
The assay is described as follows: HTRF KRAS-SOS1 interaction assay, KRAS G12D. As to conditions: binned ≤2 μM / >2 μM, read-out: Inhibition of KRAS G12D (IC50). A digest of the protocol: as §1

In the next assay the target is T3, KRAS WT (Homo sapiens, UniProt P01116).
T3 construct: made in house; host or cells: E. coli, e.g. BL21 (DE3)
T3 sequence (P01116 1-188 isoform P01116-2): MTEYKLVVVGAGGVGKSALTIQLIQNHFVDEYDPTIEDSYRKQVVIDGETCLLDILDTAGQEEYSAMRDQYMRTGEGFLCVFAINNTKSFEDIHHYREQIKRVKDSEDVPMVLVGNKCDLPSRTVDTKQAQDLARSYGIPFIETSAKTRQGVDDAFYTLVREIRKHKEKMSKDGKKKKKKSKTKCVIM
As to the kind of experiment: HTRF KRAS-SOS1 interaction assay, wildtype KRAS. The note with it: binned ≤2 μM / >2 μM, read-out: Inhibition of KRAS WT (IC50). The procedure, abridged: as §1

The next assay deals with T4, KRAS G12S (Homo sapiens, UniProt P01116, G12S).
T4 construct: made in house; host or cells: E. coli, e.g. BL21 (DE3)
T4 sequence (P01116 1-188 isoform P01116-2 G12S): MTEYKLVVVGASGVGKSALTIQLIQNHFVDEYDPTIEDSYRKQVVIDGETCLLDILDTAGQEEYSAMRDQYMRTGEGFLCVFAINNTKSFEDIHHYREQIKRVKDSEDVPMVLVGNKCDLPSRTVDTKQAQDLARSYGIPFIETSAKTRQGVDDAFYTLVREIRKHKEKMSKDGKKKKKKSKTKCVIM
The assay is described as follows: HTRF KRAS-SOS1 interaction assay, KRAS G12S. The note with it: binned ≤2 μM / >2 μM, read-out: Inhibition of KRAS G12S (IC50). A digest of the protocol: as §1

pIC50: −log10 of the molar value.

Usually pIC50 stands for −log10 of the IC50, conventionally taken in molar units.

T2 sequence (P01116 1-188 isoform P01116-2 G12D): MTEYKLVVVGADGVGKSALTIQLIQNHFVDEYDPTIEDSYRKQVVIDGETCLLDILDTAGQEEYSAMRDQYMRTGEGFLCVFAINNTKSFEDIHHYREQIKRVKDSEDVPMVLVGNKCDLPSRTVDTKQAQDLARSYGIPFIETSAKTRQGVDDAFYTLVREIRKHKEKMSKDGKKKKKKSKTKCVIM
T1 sequence (P01116 1-188 isoform P01116-2 G12V): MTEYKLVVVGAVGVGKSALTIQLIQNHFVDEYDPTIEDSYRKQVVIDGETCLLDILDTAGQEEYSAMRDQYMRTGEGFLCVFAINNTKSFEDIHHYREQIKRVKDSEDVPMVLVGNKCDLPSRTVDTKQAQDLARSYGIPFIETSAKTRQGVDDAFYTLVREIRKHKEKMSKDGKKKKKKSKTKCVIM

Turning to `C=C(F)[C@@H](c1cccnc1N)N1CCOc2c(Cl)c(-c3ccc(F)c4sc(N)c(C#N)c34)c(F)c3nc(OC[C@@]45CCCN4C[C@H](F)C5)nc1c23` [Compound 601, 2-amino-4-(4-((R)-1-(2-aminopyridin-3-yl)-2-fluoroallyl)-8-chloro-10-fluoro-2-(((2R,7aS)-2-fluorotetrahydro-1H-pyrrolizin-7a(5H)-yl)methoxy)-5,6-dihydro-4H-[1,4]oxazepino[5,6,7-de]quinazolin-9-yl)-7-fluorobenzo[b]thiophene-3-carbonitrile], the pIC50 on KRAS G12V, on KRAS G12D, at KRAS WT and at KRAS G12S was at least 5.70 in each case.
`C#CC(F)(F)[C@H](c1cccnc1N)N1CCOc2c(Cl)c(-c3ccc(F)c4sc(N)c(C#N)c34)c(F)c3nc(OC[C@@]45CCCN4C[C@H](F)C5)nc1c23` [Compound 867, 2-amino-4-(4-((S)-1-(2-aminopyridin-3-yl)-2,2-difluorobut-3-yn-1-yl)-8-chloro-10-fluoro-2-(((2R,7aS)-2-fluorotetrahydro-1H-pyrrolizin-7a(5H)-yl)methoxy)-5,6-dihydro-4H-[1,4]oxazepino[5,6,7-de]quinazolin-9-yl)-7-fluorobenzo[b]thiophene-3-carbonitrile]: the pIC50 on KRAS G12V, on KRAS G12D, on KRAS WT and on KRAS G12S was at least 5.70 throughout.
Take `C[C@H](Oc1nc2c3c(c(C(F)(F)F)c(-c4ccc(F)c5sc(N)c(C#N)c45)c(F)c3n1)OCCN2[C@H](C)c1cccnc1N)[C@@H]1C[C@@H](F)CN1C` [Compound 890, 2-amino-4-(4-((R)-1-(2-aminopyridin-3-yl)ethyl)-10-fluoro-2-((S)-1-((2S,4R)-4-fluoro-1-methylpyrrolidin-2-yl)ethoxy)-8-(trifluoromethyl)-5,6-dihydro-4H-[1,4]oxazepino[5,6,7-de]quinazolin-9-yl)-7-fluorobenzo[b]thiophene-3-carbonitrile]: the pIC50 on KRAS G12V, on KRAS G12D, at KRAS WT and at KRAS G12S was at least 5.70 each time.
For `CC(=O)c1c(F)ccc2cc(O)cc(-c3nc4c5c(nc(OC[C@@H]6CCCN6C)nc5c3F)N(C(C)c3cccnc3N)CCO4)c12` (single isomer, unassigned) [Compound 750], the pIC50 at KRAS G12V, at KRAS G12D, at KRAS WT and on KRAS G12S was at least 5.70 throughout.
On to `C#Cc1c(F)ccc2cc(O)cc(-c3nc4c5c(nc(OC[C@@]67CCCN6C[C@H](F)C7)nc5c3F)N([C@H](C)c3cccnc3N)CCO4)c12` (single isomer, unassigned) [Compound 862], for which the pIC50 at KRAS G12V, at KRAS G12D, at KRAS WT and at KRAS G12S was at least 5.70 throughout.
`COc1cnc(N)c([C@@H](C)N2CCOc3c(C(F)(F)F)c(-c4ccc(F)c5sc(N)c(C#N)c45)c(F)c4nc(OC[C@@]56CCCN5C[C@H](F)C6)nc2c34)c1` [Compound 815, 2-amino-4-(4-((R)-1-(2-amino-5-methoxypyridin-3-yl)ethyl)-10-fluoro-2-(((2R,7aS)-2-fluorotetrahydro-1H-pyrrolizin-7a(5H)-yl)methoxy)-8-(trifluoromethyl)-5,6-dihydro-4H-[1,4]oxazepino[5,6,7-de]quinazolin-9-yl)-7-fluorobenzo[b]thiophene-3-carbonitrile]: the pIC50 at KRAS G12V, on KRAS G12D, on KRAS WT and on KRAS G12S was at least 5.70 throughout.
Consider `Cc1c(F)c(N)cc(-c2nc3c4c(nc(OC[C@@]56CCCN5C[C@H](F)C6)nc4c2F)N([C@H](C)c2cccnc2N)C[C@H](C)O3)c1C(F)(F)F` (single isomer, unassigned) [Compound 687], for which the pIC50 on KRAS G12V, on KRAS G12D, on KRAS WT and on KRAS G12S was at least 5.70 each time.
`C[C@H](c1ccc(F)nc1N)N1CCOc2c(C(F)(F)F)c(-c3ccc(F)c4sc(N)c(C#N)c34)c(F)c3nc(OCC4(CN5CCC(F)CC5)CC4)nc1c23` [Compound 604, 2-amino-4-(4-((R)-1-(2-amino-6-fluoropyridin-3-yl)ethyl)-10-fluoro-2-((1-((4-fluoropiperidin-1-yl)methyl)cyclopropyl)methoxy)-8-(trifluoromethyl)-5,6-dihydro-4H-[1,4]oxazepino[5,6,7-de]quinazolin-9-yl)-7-fluorobenzo[b]thiophene-3-carbonitrile]: the pIC50 at KRAS G12V, at KRAS G12D, on KRAS WT and on KRAS G12S was at least 5.70 in each case.
For the molecule `C[C@H](c1cccnc1N)N1CCOc2c(C(F)(F)F)c(-c3ccc(F)c4sc(N)c(C#N)c34)c(F)c3nc(OC[C@@]45CCCN4C[C@@]4(CC4(F)F)C5)nc1c23` (single isomer, unassigned) [Compound 725], the pIC50 at KRAS G12V, at KRAS G12D, at KRAS WT and on KRAS G12S was at least 5.70 throughout.
On to `C[C@@H]1CN(CC2(COc3nc4c5c(c(C(F)(F)F)c(-c6ccc(F)c7sc(N)c(C#N)c67)c(F)c5n3)OCCN4[C@H](C)c3cccnc3N)CC2)CCO1` (single isomer, unassigned) [Compound 826], for which the pIC50 at KRAS G12V, at KRAS G12D, at KRAS WT and at KRAS G12S was under 5.70 throughout.
As for `Cc1cnc(N)c([C@@H](C)N2CCOc3c(C(F)(F)F)c(-c4ccc(F)c5sc(N)c(C#N)c45)c(F)c4nc(OC[C@@]56CCCN5C[C@H](F)C6)nc2c34)c1` (single isomer, unassigned) [Compound 796], the pIC50 at KRAS G12V, at KRAS G12D, at KRAS WT and on KRAS G12S was at least 5.70 throughout.
Turning to `Cc1ccnc(N)c1[C@@H](C)N1CCOc2c(C(F)(F)F)c(-c3ccc(F)c4sc(N)c(C#N)c34)c(F)c3nc(OC[C@@]45CCCN4C[C@H](F)C5)nc1c23` (single isomer, unassigned) [Compound 821], the pIC50 at KRAS G12V, on KRAS G12D, on KRAS WT and at KRAS G12S was at least 5.70 each time.
As to `C[C@H](c1nccnc1N)N1CCOc2c(C(F)(F)F)c(-c3ccc(F)c4sc(N)c(C#N)c34)c(F)c3nc(OC[C@@]45CCCN4C[C@@]4(CC4(F)F)C5)nc1c23` [Compound 773, 2-amino-4-(4-((R)-1-(3-aminopyrazin-2-yl)ethyl)-2-(((1S,7a′S)-2,2-difluorodihydro-1′H,3′H-spiro[cyclopropane-1,2′-pyrrolizin]-7a′(5′H)-yl)methoxy)-10-fluoro-8-(trifluoromethyl)-5,6-dihydro-4H-[1,4]oxazepino[5,6,7-de]quinazolin-9-yl)-7-fluorobenzo[b]thiophene-3-carbonitrile], the pIC50 at KRAS G12V, at KRAS G12D, at KRAS WT and on KRAS G12S was at least 5.70 each time.
On to `C[C@H](c1nccnc1N)N1CCOc2c(C(F)(F)F)c(-c3ccc(F)c4sc(N)c(C#N)c34)c(F)c3nc(OC[C@@]45CCCN4C[C@H](F)C5)nc1c23` (single isomer, unassigned) [Compound 797], for which the pIC50 on KRAS G12V, on KRAS G12D, at KRAS WT and at KRAS G12S was under 5.70 each time.
With `CCON=C(C)CC[C@H](c1cccnc1N)N1CCOc2c(C(F)(F)F)c(-c3ccc(F)c4sc(N)c(C#N)c34)c(F)c3nc(OC[C@@]45CCCN4C[C@H](F)C5)nc1c23` (mixture of isomers) [Compound 789, 2-amino-4-(4-((R)-1-(2-aminopyridin-3-yl)-4-(ethoxyimino)pentyl)-10-fluoro-2-(((2R,7aS)-2-fluorotetrahydro-1H-pyrrolizin-7a(5H)-yl)methoxy)-8-(trifluoromethyl)-5,6-dihydro-4H-[1,4]oxazepino[5,6,7-de]quinazolin-9-yl)-7-fluorobenzo[b]thiophene-3-carbonitrile], the pIC50 at KRAS G12V, on KRAS G12D, on KRAS WT and on KRAS G12S was at least 5.70 in each case.
On to `C[C@H](c1ccc(CN)nc1N)N1CCOc2c(Cl)c(-c3ccc(F)c4sc(N)c(C#N)c34)c(F)c3nc(OC[C@@]45CCCN4C[C@H](F)C5)nc1c23` [Compound 813, 2-amino-4-(4-((R)-1-(2-amino-6-(aminomethyl)pyridin-3-yl)ethyl)-8-chloro-10-fluoro-2-(((2R,7aS)-2-fluorotetrahydro-1H-pyrrolizin-7a(5H)-yl)methoxy)-5,6-dihydro-4H-[1,4]oxazepino[5,6,7-de]quinazolin-9-yl)-7-fluorobenzo[b]thiophene-3-carbonitrile], for which the pIC50 on KRAS G12V, on KRAS G12D, on KRAS WT and on KRAS G12S was at least 5.70 throughout.

(Values after patent US12668600B2 (Kumquat Biosciences Inc., priority 2023, dated 2026).)
